Structures are written as SMILES. pIC50: −log10 of the molar value.

Data set [1] can be described thus: Stability of compound in rabbit plasma assessed as compound degradation at 10 uM incubated up to 45 mins by HPLC analysis. It is filed as ADME, cell-free, Oryctolagus cuniculus. Particulars: 0.75 h.
The target of data set [2] is Cytochrome P450 2E1 (Homo sapiens, UniProt P05181). Kind of data set: Inhibition of CYP2E1 in human liver microsomes using chlorzoxazone as substrate preincubated for 5 mins followed by NADPH generating system addition and measured after 120 mins by LC-MS/MS. The format is ADME.
Data set [3] concerns the target Cytochrome P450 2C9 (Homo sapiens, UniProt P11712). Kind of data set: Inhibition of CYP2C9 in human liver microsomes using tolbutamide as substrate preincubated for 5 mins followed by NADPH generating system addition and measured after 120 mins by LC-MS/MS. It is filed as ADME.
The target of data set [4] is P2Y purinoceptor 12 (Homo sapiens, UniProt Q9H244). As to the kind of experiment: Antagonist activity at P2Y12 in human whole blood assessed as suppression of ADP-induced decrease in PGE1-induced VASP phosphorylation measured after 10 mins by immunostaining based flow cytometric analysis. It is filed as tissue-based.
The nature of data set [5]: Cmax in male Sprague-Dawley rat at 10 mg/kg, iv administered as single dose by LC-MS analysis. The format is ADME, organism-based. The arrangement: route intravenous, dose 10 mg/kg. The conditions noted are these: in vivo.
The target in data set [6] is Cytochrome P450 3A4 (Homo sapiens, UniProt P08684). Kind of data set: Inhibition of CYP3A4 in human liver microsomes using testosterone as substrate preincubated for 5 mins followed by NADPH generating system addition and measured after 120 mins by LC-MS/MS. It is filed as ADME. Background: Microsomes from liver hold many membrane-bound enzymes, among them those of drug oxidation.

Data set [7] concerns Rattus norvegicus. Kind of data set: Antithrombotic activity in FeCl3-induced Sprague-Dawley rat model of arterial thrombosis assessed as reduction in thrombus weight at 10 mg/kg, po qd administered as single dose for 7 days and measured 2 hrs post last dose. The format is functional. The arrangement: scale not given: the % may be the effect or the level left. The conditions noted are these: time 7 day.

Data set [8] can be described thus: Oral bioavailability in male Sprague-Dawley rat at 10 mg/kg administered as single dose by LC-MS analysis. The format is ADME, organism-based. Particulars: in vivo.
The nature of data set [9]: Solubility of compound. It is filed as physicochemical.
Data set [10] in a line: Drug metabolism in human liver microsome assessed as 1-[(4-Cyanobenzyl)oxy]-2-(3-cyanophenyl)-4-methyl-1H-imidazole-5-carboxylic acid formation at 0.2 uM in presence of NADPH measured up to 90 mins by LC-MS/MS analysis. It is filed as ADME. Particulars: microsomes, 1.5 h.
The nature of data set [11]: Acute toxicity in Kunming mouse assessed as behavioral abnormalities at 2000 mg/kg, ig administered as single dose monitored every day up to14 days. It is filed as organism-based. Particulars: in vivo, po, 336 h, time 14 day.
A short description of data set [12]: Metabolic stability of compound in human liver microsomes assessed as intrinsic clearance per mg protein at 0.2 uM in presence of NADPH measured up to 90 mins by LC-MS/MS analysis. The conditions noted are these: 1.5 h. The format is ADME, Microsome.

Chain of Cytochrome P450 2C9 (P11712 whole entry): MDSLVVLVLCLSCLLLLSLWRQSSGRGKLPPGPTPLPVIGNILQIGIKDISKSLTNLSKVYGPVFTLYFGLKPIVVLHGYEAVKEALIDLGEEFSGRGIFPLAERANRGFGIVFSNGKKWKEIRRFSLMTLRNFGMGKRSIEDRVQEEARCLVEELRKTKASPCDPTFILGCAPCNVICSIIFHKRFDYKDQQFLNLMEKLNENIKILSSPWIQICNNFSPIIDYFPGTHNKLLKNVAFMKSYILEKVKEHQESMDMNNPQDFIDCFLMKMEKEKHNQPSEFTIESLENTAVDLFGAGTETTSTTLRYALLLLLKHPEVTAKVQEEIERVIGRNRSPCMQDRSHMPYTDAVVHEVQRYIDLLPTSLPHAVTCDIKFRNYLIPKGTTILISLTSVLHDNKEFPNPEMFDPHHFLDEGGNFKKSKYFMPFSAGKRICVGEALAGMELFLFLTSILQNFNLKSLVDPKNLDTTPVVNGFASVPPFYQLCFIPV
Chain of Cytochrome P450 2E1 (P05181 whole entry): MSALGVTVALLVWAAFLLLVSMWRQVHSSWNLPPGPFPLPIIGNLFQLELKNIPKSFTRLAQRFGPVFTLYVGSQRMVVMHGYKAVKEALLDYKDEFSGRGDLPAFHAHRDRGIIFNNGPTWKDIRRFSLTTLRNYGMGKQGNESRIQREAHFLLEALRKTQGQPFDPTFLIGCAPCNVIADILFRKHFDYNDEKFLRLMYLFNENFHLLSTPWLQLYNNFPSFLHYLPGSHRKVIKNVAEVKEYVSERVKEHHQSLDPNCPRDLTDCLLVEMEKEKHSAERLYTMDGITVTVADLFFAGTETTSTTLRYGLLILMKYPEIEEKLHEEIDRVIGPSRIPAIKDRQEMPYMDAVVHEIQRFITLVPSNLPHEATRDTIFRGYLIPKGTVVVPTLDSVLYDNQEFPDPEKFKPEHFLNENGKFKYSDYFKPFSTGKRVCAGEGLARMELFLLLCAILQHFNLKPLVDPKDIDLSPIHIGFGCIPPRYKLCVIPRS
Chain of Cytochrome P450 3A4 (P08684 whole entry): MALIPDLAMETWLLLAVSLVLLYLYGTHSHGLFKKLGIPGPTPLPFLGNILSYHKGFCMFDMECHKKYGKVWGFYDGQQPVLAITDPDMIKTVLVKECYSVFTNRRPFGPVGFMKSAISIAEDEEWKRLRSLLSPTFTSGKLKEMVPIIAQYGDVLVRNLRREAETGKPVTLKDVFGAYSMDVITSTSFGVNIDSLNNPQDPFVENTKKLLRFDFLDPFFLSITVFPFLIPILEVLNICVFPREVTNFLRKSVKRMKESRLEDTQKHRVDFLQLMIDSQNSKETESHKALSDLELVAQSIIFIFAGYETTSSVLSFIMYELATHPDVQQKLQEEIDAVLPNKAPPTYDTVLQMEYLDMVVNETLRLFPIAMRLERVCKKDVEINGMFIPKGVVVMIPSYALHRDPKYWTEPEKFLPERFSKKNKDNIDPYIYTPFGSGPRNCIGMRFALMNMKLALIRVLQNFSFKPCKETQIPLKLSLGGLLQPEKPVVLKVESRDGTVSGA
Chain of P2Y purinoceptor 12 (Q9H244 whole entry): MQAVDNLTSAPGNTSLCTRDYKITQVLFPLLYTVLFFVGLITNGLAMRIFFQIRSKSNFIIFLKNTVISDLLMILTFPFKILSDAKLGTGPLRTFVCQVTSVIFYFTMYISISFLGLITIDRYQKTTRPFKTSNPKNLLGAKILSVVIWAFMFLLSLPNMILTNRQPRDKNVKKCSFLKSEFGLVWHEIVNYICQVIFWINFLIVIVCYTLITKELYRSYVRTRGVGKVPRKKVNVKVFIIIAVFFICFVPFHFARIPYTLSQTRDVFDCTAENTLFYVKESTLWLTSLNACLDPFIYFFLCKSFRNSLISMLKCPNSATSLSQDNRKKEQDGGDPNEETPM

In general, pIC50 refers to −log10 of the IC50, conventionally taken in molar units. By Cmax is commonly meant the peak of the concentration-time curve. With `Cc1nc(-c2cccc(C#N)c2)n(OCc2ccc(C#N)cc2)c1C(=O)O`, the Stabilty entry in data set [1] is reported as “Stable”. Besides, the pIC50 in data set [2] was less than 5.00; in data set [3], less than 5.00; in data set [4], 3.83; in [6], less than 5.00. The concentration in data set [5] peaked (Cmax) at 11200 ng/mL.
Usually bioavailability stands for dose-corrected exposure relative to a reference, in per cent. Regarding `CCOC(=O)c1c(C)nc(-c2cccc(C#N)c2)n1OCc1ccc(C#N)cc1`, the Activity is listed as 40.7% in data set [7] and “Non-Toxic” in data set [11]. This compound also displayed a bioavailability in [8] of 32.4%. Besides, the solubility result in data set [9] is on record as “Insoluble”. Also, the Drug metabolism entry in data set [10] is reported as “Metabolite_Detected”. Also, in data set [12], the CLH came out at 0.011 mL/min.

Values taken from ChEMBL document CHEMBL4673353, “Switching a Xanthine Oxidase Inhibitor to a Dual-Target Antagonist of P2Y and P2Y as an Oral Antiplatelet Agent with a Wider Therapeutic Window in Rats than Ticagrelor” (J Med Chem, 2020).
